Source: US6737383B1, “Herbicidal oxadiazolidines” (priority 1999, dated 2004)

Experiments:
giant foxtail = assay: Test B pre/postemergence giant foxtail; format: in vivo, Setaria faberii
Summary of the method: (§1)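 Response is a visual 0-to-10 score relative to untreated plants, where 0 means no effect and 10 means complete control, taken twelve to sixteen days after application. Treatments went onto soil at planting and onto foliage of 1- to 4-leaf plants, using a surfactant-containing non-phytotoxic solvent.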

wheat = assay: Test B pre/postemergence wheat; format: in vivo, Triticum aestivum
Summary of the method: as §1

crabgrass = assay: Test B pre/postemergence crabgrass; format: in vivo, Digitaria sanguinalis
Summary of the method: as §1

duck salad = assay: Test B flood test duck salad; format: in vivo, Heteranthera limosa
Summary of the method: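 Plants were grown to the 2-leaf stage before treatment with test chemical, then held in a greenhouse for twelve to sixteen days. Injury was visually rated against untreated controls on a 0–10 scale, where 0 is no effect and 10 is complete control.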

[1] = Postemergence, Rate 125 g/ha, scale 0 to 10, 0 is no effect, 10 is complete control
[2] = Preemergence, Rate 62 g/ha, scale of 0 to 10 where 0 is no effect and 10 is complete control
[3] = Preemergence, Rate 250 g/ha, scale of 0 to 10 where 0 is no effect and 10 is complete control
[4] = Preemergence, Rate 500 g/ha, scale of 0 to 10 where 0 is no effect and 10 is complete control
[5] = Rate 62 g/ha, Postemergence, scale 0 to 10 (0 no effect, 10 complete control)
[6] = Rate 500 g/ha, Postemergence, scale 0 to 10, 0 no effect, 10 complete control
[7] = Rate 62 g/ha, headed Pre-emergence (flood test species), scale 0 to 10 (0 no effect, 10 complete control)
[8] = Rate 125 g/ha, Pre-emergence, flood test species, scale 0 to 10 where 0 is no effect and 10 is complete control
[9] = Rate 250 g/ha, Pre-emergence, flood-test species, scale 0 to 10, 0 is no effect, 10 is complete control
[10] = Rate 500 g/ha, Pre-emergence, flood test species, scale 0 to 10 (0 no effect, 10 complete control)
[11] = Rate 62 g/ha, Postemergence, scale of 0 to 10 where 0 is no effect and 10 is complete control
[12] = Preemergence, Rate 62 g/ha, scale 0 to 10 (0 no effect, 10 complete control)
[13] = Postemergence (flood test), Rate 125 g/ha, scale 0 to 10, 0 is no effect, 10 is complete control
[14] = Rate 62 g/ha, Postemergence (flood test species), scale of 0 to 10 where 0 is no effect and 10 is complete control
[15] = Rate 500 g/ha, listed under Postemergence (flood test species), scale 0 to 10, 0 no effect, 10 complete control
[16] = Postemergence, Rate 250 g/ha, scale 0 to 10, 0 is no effect, 10 is complete control

SMILES	Plant response rating, Giant foxtail (giant foxtail; [1])	Giant foxtail plant response rating (0 to 10 scale) (giant foxtail; Preemergence, Rate 125 g/ha)	Giant foxtail plant response rating (giant foxtail; [3])	Giant foxtail plant response rating (giant foxtail; [4])	Plant response rating, Giant foxtail (giant foxtail; [6])	Plant response rating, Wheat (wheat; [1])	Wheat plant response rating (0 to 10 scale) (wheat; Preemergence, Rate 125 g/ha)	Wheat plant response rating (wheat; [3])	Wheat plant response rating (wheat; [4])	Plant response rating, Wheat (wheat; [6])	Plant response rating, Crabgrass (crabgrass; [1])	Crabgrass plant response rating (0 to 10 scale) (crabgrass; Preemergence, Rate 125 g/ha)	Crabgrass plant response rating (crabgrass; [3])	Crabgrass plant response rating (crabgrass; [4])	Plant response rating, Crabgrass (crabgrass; [6])	Ducksalad plant response rating (duck salad; [9])	Ducksalad plant response rating (duck salad; [10])	Giant foxtail plant response rating (giant foxtail; [11])	Wheat plant response rating (wheat; [11])	Crabgrass plant response rating (crabgrass; [11])	further results
Cc1c(-n2c(=O)on(C(=O)N(c3ccc(F)cc3)C(C)C)c2=O)ccc2ccccc12 [Compound 338]	0	0	0	9	0	0	0	0	0	0	0	0	0	0	0	0	0	–	–	–	Giant foxtail plant response rating (giant foxtail; [2]): 0; Giant foxtail plant response rating (giant foxtail; [5]): 0; Wheat plant response rating (wheat; [2]): 0; Wheat plant response rating (wheat; [5]): 0; Crabgrass plant response rating (crabgrass; [2]): 0; Crabgrass plant response rating (crabgrass; [5]): 0; Ducksalad plant response rating (duck salad; [7]): 0; Ducksalad plant response rating (duck salad; [8]): 0
CC(C)N(C(=O)n1oc(=O)n(C2CCCCCC2)c1=O)c1ccc(Cl)cc1 [Compound 339]	0	3	9	10	0	0	0	0	0	0	0	0	2	5	2	0	3	0	0	0	Giant foxtail plant response rating (giant foxtail; [2]): 1; Wheat plant response rating (wheat; [2]): 0; Crabgrass plant response rating (crabgrass; [2]): 0; Ducksalad plant response rating (duck salad; [7]): 0; Ducksalad plant response rating (duck salad; [8]): 0
CC(C)N(C(=O)n1oc(=O)n(C2CCC2)c1=O)c1ccccc1 [Compound 348]	8	10	10	10	9	3	0	0	0	4	2	7	10	10	6	–	–	3	2	1	Plant response rating, Giant foxtail (giant foxtail; [12]): 9; Plant response rating, Wheat (wheat; [12]): 0; Plant response rating, Crabgrass (crabgrass; [12]): 7; Plant response rating, Ducksalad (duck salad; [13]): 3; Ducksalad plant response rating (duck salad; [14]): 0; Plant response rating, Ducksalad (duck salad; [15]): 4
CC(C)N(C(=O)n1oc(=O)n(C2CCC2)c1=O)c1ccc(Cl)cc1 [Compound 349]	0	9	10	10	9	0	0	0	0	3	0	6	8	9	3	–	–	0	0	0	Plant response rating, Giant foxtail (giant foxtail; [12]): 8; Plant response rating, Wheat (wheat; [12]): 0; Plant response rating, Crabgrass (crabgrass; [12]): 3; Plant response rating, Ducksalad (duck salad; [13]): 0; Ducksalad plant response rating (duck salad; [14]): 0; Plant response rating, Ducksalad (duck salad; [15]): 4
Cc1nsc(Cl)c1Cn1c(=O)on(C(=O)N(c2ccc(F)cc2)C(C)C)c1=O [Compound 373]	3	8	10	10	6	0	0	0	0	0	0	7	10	10	2	0	0	0	0	0	Plant response rating, Giant foxtail (giant foxtail; [16]): 3; Plant response rating, Giant foxtail (giant foxtail; [12]): 8; Plant response rating, Wheat (wheat; [16]): 0; Plant response rating, Wheat (wheat; [12]): 0; Plant response rating, Crabgrass (crabgrass; [16]): 1; Plant response rating, Crabgrass (crabgrass; [12]): 4; Plant response rating, Ducksalad (0 to 10 scale, 0 is no effect, 10 is complete control) (duck salad; Rate 62 g/ha, flood test species, Pre-emergence, visual evaluation after twelve to sixteen days): 0; Ducksalad plant response rating (0 to 10 scale, 0 is no effect, 10 is complete control) (duck salad; Rate 125 g/ha, under heading Pre-emergence, flood test species, visual evaluation after twelve to sixteen days): 0
